Reference: patent US20150025120A1, “PYRAZOLE-ALCOHOL COMPOUNDS AND PHARMACEUTICAL USE THEREOF” (JAPAN TOBACCO INC., priority 2013, published 2015)

Tests used:
[1] = Metabolic stability test in liver microsome (human); type: in vitro ADME; conditions: 5 μM test compound
Protocol: Human liver microsome (manufactured by Xenotech, H0620, final concentration (after dilution), 0.2 mg protein/mL) was suspended in 100 mM potassium phosphate buffer (pH 7.4, containing β-nicotinamide adenine dinucleotide phosphate: 1.3 mM, D-glucose-6-phosphate: 3.3 mM, magnesium chloride: 3.3 mM, glucose-6-phosphate dehydrogenase: 0.45 U/mL), and further mixed with a test compound dissolved in MeCN/DMSO (95/5) (final concentration 5 μM). The mixture was incubated at 37° C. for 10 min and 60 min, acetonitrile containing formic acid (final concentration 0.1%) was added, and the mixture was centrifuged. The test compound (unmodified) in the supernatant was measured by high performance liquid chromatography/mass spectrometry (LC/MS) (manufactured by Waters, LC: Acquity UPLC, MS:SQ Detector or TQ Detector). The residual ratio (%) was calculated from the obtained measurement value.

[2] = molecular target: T1, hERG current (hERG-transfected HEK293 cells) (Homo sapiens, UniProt Q12809); assay: hERG whole cell patch clamp test; type: cell-based; conditions: for IC50: whole cell patch clamp, hERG-transfected HEK293 cells
T1 construct: host or cells: HEK293
Protocol: Using human ether-a-go-go related gene (hERG)-transfected HEK293 cells (Cytomyx Limited), an influence on hERG current was examined according to the whole cell patch clamp technique. The hERG-transfected HEK293 cells were passaged using a CO2 incubator (BNA-111, TABAI ESPEC CORP.) under the set conditions of 37° C., 5% CO2, saturated humidity. Culture containers used were Collagen Type I Coated 75 cm^2 flask (4123-010, AGC TECHNO GLASS CO., Ltd.) and Collagen Type I Coated 35 mm culture dish (4000-010, AGC TECHNO GLASS CO., Ltd.). The culture medium used was E-MEM (Eagle Minimum Essential Medium (Earle's Salts, Nikken biomedical laboratory) added with 10% FCS (Fetal calf serum, BioWest, L.L.C.) and 1% MEM Non-Essential Amino Acids Solution (NEAA, Invitrogen Corporation). Geneticin for the selection of hERG gene expressing cells was added thereto to a concentration of 400 μg/mL. As the cells for the measurement, 3×10^4 hERG-transfected HEK293 cells were plated on a 35 mm culture dish 4 to 7 days before measurement of the hERG current. The culture dish produced for the measurement contained the above-mentioned culture medium without geneticin (Invitrogen Corporation).
The highest evaluation concentration of each compound was determined from the highest concentration at which precipitation was not found in the standard extracellular fluid (NaCl: 140 mmol/L, KCl: 2.5 mmol/L, MgCl2: 2 mmol/L, CaCl2: 2 mmol/L, HEPES: 10 mmol/L, glucose: 10 mmol/L (adjusted to pH 7.4 with Tris-base)). As the application method, each solution to be applied was ejected from a Y-tube having a tip diameter of about 0.25 mm, which was adjacent (about 2 mm) to the cells, and applied to the cells. The ejection rate was about 0.4 mL/min.
The experiment was performed at room temperature under a phase contrast microscope. The 35 mm culture dish plated with the cells was set on a measurement apparatus, and the standard extracellular fluid was continuously applied to the cells from the Y-tube. A glass electrode for the measurement was filled with an intracellular fluid (Potassium Gluconate: 130 mmol/L, KCl: 20 mmol/L, MgCl2: 1 mmol/L, ATP-Mg: 5 mmol/L, EGTA: 3.5 mmol/L, HEPES: 10 mmol/L (adjusted to pH 7.2 with Tris-base)). A conventional whole cell patch clamp method was applied to the cells, and the maintenance electric potential was set to −80 mV. Under a fixed electric potential, the whole cell current was amplified by an amplifier for patch clamp (AXOPATCH-200B, Axon Instruments, Inc.), and the data was loaded into a computer (IMC-P642400, Intermedical Co., Ltd.) using a data acquisition analysis software (pCLAMP 9.2, Axon Instruments, Inc.).
The measurement of the hERG current was performed in the following two steps. In both cases, the hERG current was initiated by giving a command potential (maintenance electric potential −80 mV, prepulse+20 mV, 1.5 sec, test-pulse −50 mV, 1.5 sec).
Step (1): The above-mentioned command potential was given at 0.1 Hz for 2 min.
Step (2): The above-mentioned command potential was subjected to P/3 subtraction of pCLAMP 9.2 to remove leak current. This was repeated three times and an average thereof was taken as hERG current.
Subsequent to step (1), Step (2) was performed (about 3 min), and the maximum tail current obtained by applying a test-pulse to the hERG current obtained by the method of step (2) was taken as hERG current value. Hereafter, the operations of (1) and (2) were alternately repeated until completion of the experiment and the hERG current value was measured.
Stable hERG current value was recorded three times (about 10 min), and the standard extracellular fluid was instantaneously exchanged with each application fluid. The hERG current value was measured three times (about 10 min) in the same manner during perfusion of the application fluid, and the current value obtained by the 3rd measurement was taken as hERG current value after perfusion of the application fluid. […]

[3] = Metabolic stability test in liver microsome (rat); type: in vitro ADME
[4] = tested on: Zucker Diabetic Fatty rats; assay: Effect of repeated administration of test compound on HbA1c in ZDF rats; type: in vivo, rat; conditions: 1 mg/kg orally once daily, mean ± standard deviation (n = 10)
Protocol: Zucker Diabetic Fatty rats (male, 7-week-old, CHARLES RIVER LABORATORIES JAPAN INC.), an animal model for type 2 diabetes, given a purified diet (5.9% fat diet, Oriental Yeast Co., Ltd.) were allocated to the vehicle group and the test compound groups so that no bias occurred in the plasma glucose and insulin levels, HbA1c levels and body weights. Repeated oral doses of the test compound (1 mg/kg/5 mL) were administered to the rats once daily at 3 hr before the dark period. A 0.5% aqueous methylcellulose solution was orally administered in the same manner to the rats of the vehicle group. On day 14 or 21 of administration, blood samples were collected from the tail vein and HbA1c level (%) was measured. Statistical analysis was performed by Dunnett's test. Values of p<0.05 were considered statistically significant.

T1 sequence (Q12809 whole entry): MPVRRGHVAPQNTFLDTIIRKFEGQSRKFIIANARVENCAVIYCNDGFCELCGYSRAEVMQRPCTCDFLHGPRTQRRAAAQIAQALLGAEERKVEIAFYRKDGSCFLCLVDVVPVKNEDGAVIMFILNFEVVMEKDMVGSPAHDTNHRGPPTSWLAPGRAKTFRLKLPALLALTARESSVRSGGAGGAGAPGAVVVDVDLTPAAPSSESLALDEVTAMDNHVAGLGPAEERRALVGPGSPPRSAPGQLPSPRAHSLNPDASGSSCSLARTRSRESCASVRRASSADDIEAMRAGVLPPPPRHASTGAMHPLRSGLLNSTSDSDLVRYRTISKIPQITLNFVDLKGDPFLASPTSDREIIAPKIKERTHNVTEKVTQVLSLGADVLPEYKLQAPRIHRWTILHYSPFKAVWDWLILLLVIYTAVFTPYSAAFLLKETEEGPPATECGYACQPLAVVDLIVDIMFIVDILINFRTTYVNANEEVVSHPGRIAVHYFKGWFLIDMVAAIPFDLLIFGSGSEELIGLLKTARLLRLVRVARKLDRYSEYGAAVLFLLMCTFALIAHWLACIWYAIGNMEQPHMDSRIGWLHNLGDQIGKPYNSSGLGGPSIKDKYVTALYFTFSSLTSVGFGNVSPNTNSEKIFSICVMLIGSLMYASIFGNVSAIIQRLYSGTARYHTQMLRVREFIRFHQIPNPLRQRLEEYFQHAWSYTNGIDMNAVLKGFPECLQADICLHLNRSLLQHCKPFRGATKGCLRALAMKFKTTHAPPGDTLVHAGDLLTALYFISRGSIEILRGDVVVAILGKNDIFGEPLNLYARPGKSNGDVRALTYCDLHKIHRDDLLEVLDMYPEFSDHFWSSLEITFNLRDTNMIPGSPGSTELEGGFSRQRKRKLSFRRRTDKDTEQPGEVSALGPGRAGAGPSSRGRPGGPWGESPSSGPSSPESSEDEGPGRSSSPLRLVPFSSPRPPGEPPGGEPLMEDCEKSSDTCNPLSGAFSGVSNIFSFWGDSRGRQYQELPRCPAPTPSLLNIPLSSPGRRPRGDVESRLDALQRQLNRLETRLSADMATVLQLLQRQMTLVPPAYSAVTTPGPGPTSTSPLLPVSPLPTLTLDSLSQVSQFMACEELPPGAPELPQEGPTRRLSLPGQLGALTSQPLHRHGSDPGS

Row | Compound | stability in liver microsome (residual ratio %) ([1]; 10 min) | stability in liver microsome (residual ratio %) ([1]; 60 min) | hERG inhibition rate (%) ([2]; concentration 10 μmol/L) | hERG inhibition rate (%) ([2]; concentration 100 μmol/L) | IC50 [2] | stability in liver microsome (residual ratio %) ([3]; 10 min) | stability in liver microsome (residual ratio %) ([3]; 60 min) | HbAlc (%) ([4]; day 14 of administration) | hERG inhibition rate (%) ([2]; concentration 30 μmol/L) | hERG inhibition rate (%) ([2]; concentration 1 μmol/L) | HbAlc (%) ([4]; day 21 of administration)
1 | CC(C)(O)COc1cc(-c2cnn(CC(C)(C)O)c2)c2c(c1)[C@@](O)(C(F)(F)F)c1ccccc1-2 [compound (2), (9R)-2-(2-hydroxy-2-methylpropoxy)-4-[1-(2-hydroxy-2-methylpropyl)-1H-pyrazol-4-yl]-9-(trifluoromethyl)-9H-fluoren-9-ol] | 94.9% | 87.9% | 13.2% | 67.6% | 47.6 µM | 95.1% | 93.6% | 3.5 ± 0.1 % | – | – | –
2 | NC(=O)Cn1cc(-c2cc(OCCC34CC5CC(CC(O)(C5)C3)C4)cc3c2-c2ccccc2[C@]3(O)C(F)(F)F)cn1 [compound (A), 2-(4-{(9R)-9-Hydroxy-2-[2-(3-hydroxyadamantan-1-yl)ethoxy]-9-(trifluoromethyl)-9H-fluoren-4-yl}-1H-pyrazol-1-yl)acetamide, reference compound] | 34.8% | 0.0% | 11.8% | – | – | 24.8% | 0.0% | – | – | – | –
3 | CC(C)(O)CCCOc1cc(-c2cnn(CC(C)(C)O)c2)c2c(c1)[C@@](O)(C(F)(F)F)c1ccccc1-2 [compound (4), (9R)-2-(4-hydroxy-4-methylpentyloxy)-4-[1-(2-hydroxy-2-methylpropyl)-1H-pyrazol-4-yl]-9-(trifluoromethyl)-9H-fluoren-9-ol] | 98.8% | 78.9% | 18.6% | – | > 30 µM | 98.9% | 93.5% | – | 44.0% | – | –
4 | Cn1cc(-c2cc(OCC(C)(C)O)cc3c2-c2ccccc2[C@]3(O)C(F)(F)F)cn1 [compound (B), (9R)-2-(2-Hydroxy-2-methylpropoxy)-4-(1-methyl-1H-pyrazol-4-yl)-9-(trifluoromethyl)-9H-fluoren-9-ol, reference compound] | 98.0% | 88.2% | 72.9% | – | – | 101.1% | 92.1% | – | – | 17.4% | –
5 | C[C@H](O)COc1cc(-c2cnn(CC(C)(C)O)c2)c2c(c1)[C@@](O)(C(F)(F)F)c1ccccc1-2 [compound (1), (9R)-4-[1-(2-hydroxy-2-methylpropyl)-1H-pyrazol-4-yl]-2-((2S)-2-hydroxypropoxy)-9-(trifluoromethyl)-9H-fluoren-9-ol] | 102.1% | 87.8% | 16.2% | 62.3% | 54.4 µM | 102.0% | 95.4% | – | – | – | 3.6 ± 0.3%
